Reference: patent US20250073255A1, “USE OF FA-TYPE LIPID COMPOUNDS IN PREPARATION OF NUCLEIC ACID DELIVERY REAGENT AND RELATED PRODUCT” (BEIJING BAISHIKANG PHARMACEUTICAL TECHNOLOGY (BSJPHARMA) …, priority 2021, published 2025)

Test system: C57BL/6 male mice
Experiment: In vivo delivery study of lipid nucleic acid mixture (oral gavage, RT-qPCR of PGY-sRNA-26 in tissues)
Design: species or system mouse
Conditions: for overall delivery efficacy: delivering nucleic acids into each tissue and blood tested: 100 μg lipid:10 nmol PGY-sRNA-26, all tissues and blood tested; for oral delivery of single-stranded sRNA nucleic acids into mouse blood / oral delivery of single-stranded sRNA nucleic acids into mouse brain tissue / oral delivery of single-stranded sRNA nucleic acids into mouse femur / oral delivery of single-stranded sRNA nucleic acids into mouse heart tissue / oral delivery of single-stranded sRNA nucleic acids into mouse intestinal tissue / oral delivery of single-stranded sRNA nucleic acids into mouse kidney tissue / oral delivery of single-stranded sRNA nucleic acids into mouse liver tissue / oral delivery of single-stranded sRNA nucleic acids into mouse lung tissue / oral delivery of single-stranded sRNA nucleic acids into mouse spleen tissue / oral delivery of single-stranded sRNA nucleic acids into mouse stomach tissue / oral delivery of single-stranded sRNA nucleic acids into mouse pancreatic tissue: 100 μg lipid:10 nmol PGY-sRNA-26, sampled after 12 hours; for oral delivery of single-stranded sRNA nucleic acids into mouse heart tissue: vs free uptake group; for oral delivery of single-stranded sRNA nucleic acids into mouse intestinal tissue: intestine; for oral delivery of single-stranded sRNA nucleic acids into mouse pancreatic tissue: pancreas
Summary of the method: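 Stem-loop RT and SYBR qPCR, normalized to U6, measured PGY-sRNA-26 in blood and organs 12 h after gavage. Dosing was 10 nmol sRNA with 100 μg lipid, pre-mixed and heated 15 min at 90 °C, in 12-h-fasted mice, against saline and free-sRNA groups.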

Row | SMILES | overall delivery efficacy: delivering nucleic acids into each tissue and blood tested | oral delivery of single-stranded sRNA nucleic acids into mouse blood | oral delivery of single-stranded sRNA nucleic acids into mouse brain tissue | oral delivery of single-stranded sRNA nucleic acids into mouse femur | oral delivery of single-stranded sRNA nucleic acids into mouse heart tissue | oral delivery of single-stranded sRNA nucleic acids into mouse intestinal tissue | oral delivery of single-stranded sRNA nucleic acids into mouse kidney tissue | oral delivery of single-stranded sRNA nucleic acids into mouse liver tissue | oral delivery of single-stranded sRNA nucleic acids into mouse lung tissue | oral delivery of single-stranded sRNA nucleic acids into mouse spleen tissue | oral delivery of single-stranded sRNA nucleic acids into mouse stomach tissue | oral delivery of single-stranded sRNA nucleic acids into mouse pancreatic tissue
1 | N[C@H](CCCC(=O)O)C(=O)O [Lipid 625, (2R)-2-aminohexanedioic acid] | best delivery efficacy | can effectively orally deliver | can effectively orally deliver | can effectively orally deliver | can effectively orally deliver | can effectively orally deliver | can effectively orally deliver | can effectively orally deliver | can effectively orally deliver | can effectively orally deliver | can effectively orally deliver | 
2 | C=CC(=O)CCCCC [Lipid 619, oct-1-en-3-one] |  | can effectively orally deliver | can effectively orally deliver | can effectively orally deliver |  | can effectively orally deliver | can effectively orally deliver | can effectively orally deliver |  | can effectively orally deliver | can effectively orally deliver | 
3 | CCCCCC/C=C\CCCCCCCC(=O)OCCCCCCCCCCCCCCCCCCCCC [Lipid 820, henicosyl (Z)-hexadec-9-enoate] |  | can effectively orally deliver | can effectively orally deliver | can effectively orally deliver | can effectively orally deliver | can effectively orally deliver | can effectively orally deliver | can effectively orally deliver | can effectively orally deliver | can effectively orally deliver | can effectively orally deliver | can effectively orally deliver
4 | CC(C(=O)O)C(=O)O [Lipid 596, 2-methylpropanedioic acid] | best delivery efficacy | can effectively orally deliver | can effectively orally deliver | can effectively orally deliver | can effectively orally deliver | can effectively orally deliver | can effectively orally deliver | can effectively orally deliver | can effectively orally deliver | can effectively orally deliver | can effectively orally deliver | 
5 | CCCCC/C=C\C/C=C\C/C=C\C/C=C\CCCC(=O)O [Lipid 620, (5Z,8Z,11Z,14Z)-icosa-5,8,11,14-tetraenoic acid] |  |  | can effectively orally deliver | can effectively orally deliver | can effectively orally deliver | can effectively orally deliver | can effectively orally deliver | can effectively orally deliver | can effectively orally deliver | can effectively orally deliver | can effectively orally deliver | 
6 | CCCCCC1C(=O)CCC1CC(=O)O (centres unmarked) [Lipid 616, 2-(3-oxo-2-pentylcyclopentyl)-acetic acid] |  | can effectively orally deliver | can effectively orally deliver | can effectively orally deliver | can effectively orally deliver | can effectively orally deliver |  | can effectively orally deliver | can effectively orally deliver | can effectively orally deliver |  | 
7 | CCCCCC/C=C\CCCCCCCC(=O)OCCCCCCCCCCCCCCCCCCCCCCC [Lipid 825, tricosyl (Z)-hexadec-9-enoate] |  | can effectively orally deliver | can effectively orally deliver | can effectively orally deliver | can effectively orally deliver | can effectively orally deliver | can effectively orally deliver | can effectively orally deliver | can effectively orally deliver | can effectively orally deliver | can effectively orally deliver | can effectively orally deliver
8 | CC(C)(CC(=O)O)CC(=O)O [Lipid 598, 3,3-dimethylpentanedioic acid] | best delivery efficacy | can effectively orally deliver | can effectively orally deliver | can effectively orally deliver | can effectively orally deliver | can effectively orally deliver | can effectively orally deliver | can effectively orally deliver | can effectively orally deliver | can effectively orally deliver | can effectively orally deliver | 
